In paper PMC9478491, “Therapeutic effects and mechanisms of N-(9,10-anthraquinone-2-ylcarbonyl) xanthine oxidase inhibitors on hyperuricemia” (Frontiers in Pharmacology, 2022):
Several values for one entry are separate records, joined by “and”; a condition that tells them apart may be missing. Identical values can stand only once. Like-named read-outs stand apart in the source and are kept apart here.

What was measured:
rats = tested on: rats; parameters: method as in Izmerov et al., 1982; settings: ref Izmerov et al., 1982; cited from earlier work
mice = tested on: mice; parameters: method as in Izmerov et al., 1982; settings: ref Izmerov et al., 1982; cited from earlier work
[1] = tested on: potassium oxonate-induced hyperuricemia mice; experiment: UA, CRE and BUN in serum and urine of hyperuricemia mice; assay type: in vivo, mouse; settings: allopurinol 10 mg/kg gavage, 7 days
Method: Ninety SPF male KM mice (20 ± 2 g) were maintained in a normally controlled breeding room with standard laboratory food and water for 1 week prior to the experiments. The uricase inhibitor potassium oxonate was used to induce hyperuricemia in mice, according to previous reports ([Chen et al., 2019]).
Potassium oxonate (model drug), NAY (drug to be tested), and allopurinol (positive drug) were dissolved or suspended in double steaming water. The drug dose used is expressed in “mg/kg.” The dose given for each dose is converted based on the body surface area conversion method. […] Except the normal control mice, others were orally administered by 250 mg/kg potassium oxonate once daily for seven consecutive days to induce hyperuricemia. […] After 7 days’ treatment, diets were removed from the cages 12 h before the animals were sacrificed. The blood was allowed to clot for approximately 1 h at room temperature and centrifuged at 3,000 rpm for 10 min to obtain serum. Serum was divided into three portions, one to detect biochemical markers such as UA, one to detect inflammatory factors, and the remaining stored at−20°C as a backup. […]
The levels of serum UA, CRE, and BUN were measured by using the method recommended in the purchase kit. The levels of serum TNF-α, IL-6, and NLRP3 were measured by using the method recommended in the ELISA kits.

[2] = tested on: potassium oxonate-induced hyperuricemia mice; experiment: Morphology (HE) of renal and liver tissue in hyperuricemia mice; assay type: in vivo, mouse; settings: allopurinol 10 mg/kg
From the text: The liver and kidney tissues fixed in paraformaldehyde were dehydrated to be transparent. Then put the transparent tissue block into the melted paraffin, and embed it after the paraffin is completely immersed in the tissue block. Fix the embedded wax block on the microtome and cut it into 5 μm thin slices. The thin slice is ironed in hot water, then pasted on the glass slide, and dried. Before staining, paraffin wax in the sections was removed with xylene, then soaked with high to low concentration alcohol, and finally soaked in distilled water for 2 min. The dewaxed and rehydrated slices were stained in hematoxylin solution for several minutes and then washed with running water. Then put the slices into 1% hydrochloric alcohol (5–10 s) and rinse with tap water, after rinsing, place the slices in distilled water. After 2 min, the slices were removed and dehydrated with […]. After dehydration, the slices were stained with alcohol eosin solution for 2–3 min. After dehydration by alcohol, xylene was used to make the slices transparent. Finally, the transparent slices were dripped with gum and sealed with a cover glass.
Potassium oxonate (model drug), NAY (drug to be tested), and allopurinol (positive drug) were dissolved or suspended in double steaming water. […]

XOD [3] = assay type: cell-based, mouse; settings: AML12 cells, allopurinol 100 μmol/L, p < 0.001
AML12 cells = experiment: Culture supernatant UA level of hyperuricemia AML12 cells; assay type: cell-based, mouse; settings: allopurinol 100 μmol/L, p < 0.001
Method: AML12 cells in logarithmic growth were digested with trypsin, and cell suspension was made by pipette blowing. After counting with a blood counting plate, the cells were diluted to 10^5 cells/mL, and 1 ml of each well was inoculated in a medium dish. The cells were placed in a 5% (V/V) CO2 cell incubator at 37 °C for 24 h. 24 h later, the cell supernatant was discarded, washed with PBS for three times, and the adenosine solution prepared with the current basic medium without fetal bovine serum as the solvent was added. The dosage of adenosine was 1.5 mmol/L, and the cells were placed in the cell culture box for further incubation for 24 h. The culture dish was taken out, 0.005 IU xanthine oxidase (XO) was added to each well, and incubated in the cell incubator for 24 h, and then the hyperuricemia liver cell model was obtained.
AML12 cells were cultured in complete medium at 37 °C and a 5% CO2 cell incubator. Logarithmic growth cells were made into cell suspension with trypsin. The cells were inoculated into 24-well plates at the concentration of 10^5 cells/ml and cultured in a cell incubator at 37°C and 5% CO2 for 24 h. After the cells adhered to the wall, the medium in 24-well plates was discarded and washed with PBS for three times. […] After 24 h, the model and administration groups were washed with PBS for three times. […]

HK-2 cells = experiment: Culture supernatant UA level of hyperuricemia HK-2 cells; assay type: cell-based, human; settings: allopurinol 100 μmol/L
Method: According to the establishment method of HK-2 cells, hyperuricemia model was reported in the literature ([Hou et al., 2019]), and HK-2 cells was cultured in a complete medium in a 5% CO2, 37°C cell incubator. The cells in the logarithmic growth phase were inoculated on a 24-well plate at a concentration of 10^5 cells/ml. The cells were cultured in a 37 °C incubator for 24 h. 24 h later, discard the culture medium, and wash cells by PBS for three times. Add 2.5 mmol/L adenosine solution prepared from the incomplete medium to each well and incubate in the incubator for 24 h. Then 0.005 IU/mg XO solution was added to each well in the 24-well plate, and the supernatant was collected after incubation for 12 h. The absorbance was measured on the microplate reader using the UA kit.
Hk-2 cells were cultured in a 5% CO2 cell incubator at 37 °C in complete medium. The cells in the logarithmic growth phase were inoculated on a 24-well plate at a concentration of 10^5 cells/ml and cultured in a 5% CO2 cell incubator at 37°C for 24 h. After 24 h, the culture medium was discarded and washed with PBS for three times. […] After 24 h, the model and drug administration groups were washed with PBS for three times, and the model and drug administration groups were added with 2.5 mmol/L adenosine solution prepared with incomplete whole medium and incubated in an incubator for 24 h. […]

[4] = tested on: TNF-α, IL-6, IL-1β, NLRP3; experiment: TNF-α, IL-6, IL-1β, NLRP3 in HK-2 culture supernatant (ELISA); assay type: cell-based, human; settings: HK-2 cells, allopurinol 100 μmol/L, p < 0.01
From the text: The culture, induction, and administration of hyperuricemia HK-2 cells were the same as described earlier. Finally, the supernatant of the culture medium was collected to detect the levels of inflammatory factors. ELISA kits were used to detect the supernatant TNF-α, IL-6, IL-1β, and NLRP3 levels of the culture medium.

XOD [5] = experiment: Western blot, XOD protein in AML12 cells; assay type: cell-based, mouse; settings: allopurinol 100 μmol/L, p < 0.01
Method: The total protein of HK-2 cells and AML12 cells were extracted with total protein extraction kit, and the concentration was determined by the BCA kit. Electrophoresis, membrane transfer, antibody incubation, and other operations were performed in accordance with the Western blot experiment procedures. The protein bands were quantified by ImageJ software and normalized to individual β-actin expression levels.

[6] = Pharmacokinetics in rats (HPLC-MS/MS, WinNonlin); assay type: in vivo, SD rats
Method: The volume of intravenous administration was 1 ml/250 g, and the volume of oral administration was 1 ml/100 g. Whole blood was collected at 2, 5, 10, 20, 30, 60, 120, 240, 360, 480, 720, and 1440 min after intravenous administration. The rats’ blood was transferred to the heparinized test tube. The whole blood was centrifuged at 8,000 rpm for 5 min, and the plasma was separated and stored in a refrigerator at -80°C for testing.

patients = tested on: patients; parameters: method as in Madero et al., 2009; Liu et al., 2016; settings: patients taking allopurinol; ref Madero et al., 2009; Liu et al., 2016; cited from earlier work
[7] = allopurinol, rats, gavage 50 mg/kg, n = 3
[8] = allopurinol, rats, gavage 50 mg/kg, single animals, 50 mg/kg
[9] = allopurinol, rats, intravenous injection 5 mg/kg, single animals, 5 mg/kg

O=C1c2ccccc2C(=O)c2ccccc21 [AQ, 9,10-anthraquinone]
acute oral toxicity LD50 (rats): > 5,000 mg/kg BW
acute oral toxicity LD50 (mice): > 5,000 mg/kg BW

Oc1ncnc2[nH]ncc12 [allopurinol]
serum UA, CRE and BUN levels vs model group [1]: obviously decreased the aforementioned indexes
liver tissue morphology (HE) [2]: many inflammatory cell infiltrates with a small number of hepatocyte necrosis
renal tissue morphology (HE) [2]: Renal cortical inflammatory cell infiltration and marked tubular luminal expansion
XOD activity vs model group (XOD [3]): effect of the allopurinol group on reducing XOD viability and the level of supernatant UA were obvious
supernatant UA level vs model group (AML12 cells): effect of the allopurinol group on reducing XOD viability and the level of supernatant UA were obvious
UA levels in hyperuricemia cell model (HK-2 cells): could reduce UA levels
IL-6 level in medium supernatant [4]: could reduce the IL-6 level
TNF-α level in medium supernatant [4]: significantly reduced the TNF-α level
XOD protein expression vs model group (XOD [5]): significantly reduced
AUC(0-t) ([6]; SD, rat, plasma, iv, 5 mg/kg, allopurinol, rats, intravenous injection 5 mg/kg, n = 3, read-out: AUC (0–t), Average): 1540 ng·h/mL
AUC(0-inf) ([6]; SD, rat, plasma, iv, 5 mg/kg, allopurinol, rats, intravenous injection 5 mg/kg, n = 3, read-out: AUC (0–∞), Average): 1590 ng·h/mL
MRT inf ([6]; SD, rat, plasma, iv, 5 mg/kg, allopurinol, rats, intravenous injection 5 mg/kg, n = 3, read-out: MRT (0–∞), Average): 0.27 h
AUC(0-t) ([6]; SD, rat, plasma, iv, 5 mg/kg, allopurinol, rats, intravenous injection 5 mg/kg, single animals, read-out: AUC (0–t), individual rats 1-3): 1600 ng·h/mL
AUC(0-inf) ([6]; SD, rat, plasma, iv, 5 mg/kg, allopurinol, rats, intravenous injection 5 mg/kg, single animals, read-out: AUC (0–∞), individual rats 1-3): 1650 ng·h/mL
MRT inf ([6]; SD, rat, plasma, iv, 5 mg/kg, allopurinol, rats, intravenous injection 5 mg/kg, single animals, read-out: MRT (0–∞), individual rats 1-3): 0.27 h
AUC(0-inf) ([6]; SD, rat, plasma, iv, 5 mg/kg, allopurinol, rats, intravenous injection 5 mg/kg, read-out: AUC0-∞): 1590 ± 139 ng·h/mL
concentration at 2 min ([6]; SD, rat, plasma, iv, 5 mg/kg, read-out: C2min (drug concentration in plasma)): 5280 ± 686 ng/mL
k el ([6]; SD, rat, plasma, iv, 5 mg/kg, read-out: elimination rate constant K (converted)): 0.000964 s⁻¹
bioavailability ([6]; SD, rat, plasma, oral, 50 mg/kg, read-out: F): 158%
AUC(0-t) ([6]; SD, rat, plasma, po, 50 mg/kg, allopurinol, rats, gavage 50 mg/kg, n = 3, read-out: AUC (0–t), Average): 24500 ng·h/mL
AUC(0-inf) ([6]; SD, rat, plasma, po, 50 mg/kg, allopurinol, rats, gavage 50 mg/kg, n = 3, read-out: AUC (0–∞), Average): 25100 ng·h/mL
Cmax ([6]; SD, rat, plasma, po, 50 mg/kg, allopurinol, rats, gavage 50 mg/kg, n = 3, read-out: Cmax, Average): 6610 ng/mL
MRT inf ([6]; SD, rat, plasma, po, 50 mg/kg, allopurinol, rats, gavage 50 mg/kg, n = 3, read-out: MRT (0–∞), Average): 2.36 h
AUC(0-t) ([6]; SD, rat, plasma, po, 50 mg/kg, allopurinol, rats, gavage 50 mg/kg, single animals, read-out: AUC (0–t), individual rats 1-3): 27500 ng·h/mL
AUC(0-inf) ([6]; SD, rat, plasma, po, 50 mg/kg, allopurinol, rats, gavage 50 mg/kg, single animals, read-out: AUC (0–∞), individual rats 1-3): 28700 ng·h/mL
Cmax ([6]; SD, rat, plasma, po, 50 mg/kg, allopurinol, rats, gavage 50 mg/kg, single animals, read-out: Cmax, individual rats 1-3): 6100 ng/mL
MRT inf ([6]; SD, rat, plasma, po, 50 mg/kg, allopurinol, rats, gavage 50 mg/kg, single animals, read-out: MRT (0–∞), individual rats 1-3): 2.88 h
Tmax ([6]; SD, rat, plasma, po, 50 mg/kg, read-out: Tmax, individual rats 1-3): 1 h
bioavailability ([6]; SD, rat, plasma, po, 50 mg/kg, read-out: calculated bioavailability): 158%
Tmax, Average [6, 7]: 1.00 h
V/F, Average [6, 7]: 3.18 L/kg
Tmax, individual rats 1-3 ([6]; allopurinol, rats, gavage 50 mg/kg, single animals): 1.00 h
AUC (0–t), individual rats 1-3 [6, 8]: 19623.63 ng·h/mL and 26462.91 ng·h/mL
AUC (0–∞), individual rats 1-3 [6, 8]: 20029.34 ng·h/mL and 26666.72 ng·h/mL
Cmax, individual rats 1-3 [6, 8]: 5,968.97 ug/L and 7742.83 ug/L
MRT (0–∞), individual rats 1-3 [6, 8]: 1.84 h and 2.35 h
V/F, individual rats 1-3 [6, 8]: 3.19 L/kg and 3.81 L/kg and 2.53 L/kg
V, Average ([6]; allopurinol, rats, intravenous injection 5 mg/kg, n = 3): 0.92 L/kg
AUC (0–t), individual rats 1-3 [6, 9]: 1383.23 ng·h/mL and 1648.60 ng·h/mL
AUC (0–∞), individual rats 1-3 [6, 9]: 1432.09 ng·h/mL and 1687.42 ng·h/mL
MRT (0–∞), individual rats 1-3 [6, 9]: 0.29 h
V, individual rats 1-3 [6, 9]: 0.91 L/kg and 1.05 L/kg and 0.81 L/kg
patients who can reduce serum UA concentration to the target level (patients): less than 40%
